Experimental data from patent US20100292278A1, “Methods of treating vascular disease and injury” (priority 2009, published 2010).

Assays:
[1] = test system: miR-29a; experiment: qRT-PCR of miR-29 expression level in H9c2 cells; type: cell-based, rat
Method: (§1) The cardiac muscle cell H9c2 was maintained in complete growth medium, supplemented with 10% FBS, penicillin G (100 IU/ml). Cells were incubated at 37° C. in a humidified atmosphere (5% CO2/95% air). Passages 5-9 were used for all experiments. Exponentially growing H9c2 cells were seeded at 1×10^5 per 100 mm plate and incubated until 60-70% confluent. Cells were treated with: 1) vehicle alone (2% ethanol); 2) 10 nM PIO; 3) 1 μM GW9662; 4) 10 nM PIO+1 μM GW9662. PIO was dissolved in 70% ethanol. 24 hours later, cells were harvested and total RNA enriched with small RNAs was isolated using mirVana miRNA Isolation Kit (Ambion). MiR-29 levels were measured using the mirVana qRT-PCR miRNA Detection Kit (Ambion). Reactions containing mirVana qRT-PCR Primer Sets were specific for rat miR-29. The appropriate cycle threshold (Ct) was determined by using the automatic baseline determination feature. The expression of miR-29 between RNA samples was calculated. Data were normalized by evaluating U6 expression.

[2] = test system: miR-29c; experiment: qRT-PCR of miR-29 expression level in H9c2 cells; type: cell-based, rat
Method: as §1

[3] = 10 nM PIO + 1 μM GW9662, 24 hours
[4] = single agent, 24 hours, 10 nM PIO or 1 μM GW9662, vs vehicle control

In the case of `O=C(Nc1ccccc1)c1cc([N+](=O)[O-])ccc1Cl` [GW9662], the “effect of PIO on miR-29a level in H9c2 cells (qRT-PCR)” value [1, 3] is reported as “block the effect of PIO”, the “miR-29a level in H9c2 cells (qRT-PCR)” value [1, 4] is reported as “no effect” and the “effect of PIO on miR-29c level in H9c2 cells (qRT-PCR)” value [2, 3] is reported as “block the effect of PIO”. For the same molecule, the “miR-29c level in H9c2 cells (qRT-PCR)” value [2, 4] was “no effect”.
